Like-named read-outs stand apart in the source and are kept apart here.
What was measured:
Spodopt. Littoralis = test: Activity on Spodopt. Littoralis (Table II); assay type: in vivo; conditions: 1 % a.p.
Text: (§1) In order to show how the compounds of the invention have different activities depending on the species at varying concentrations, the death-rate percentages on various infesting kinds of compounds of the invention at varying concentrations of active principle have been recorded in Table II.

Tetran. Urt. adults = test: Activity on Tetran. Urt. adults (Table II); assay type: in vivo
Text: as §1

[1] = system: Leptinotarsa decemlineata; test: Activity test on Leptinotarsa decemlineata larvae on potato plants; assay type: in vivo; conditions: for mortality at 1 %: read-out: % mort. Leptinot. Decemlin.
Text: Potato plants grown in pots were infested with 4-day old larvae and subjected to besprinkling with an aqueous 0.1% dispersion of the product of Example 1.
as §1

Culex pipiens = test: Activity test on Culex pipiens larvae in aqueous dispersion; assay type: in vivo
Text: Into glasses containing an aqueous dispersion of the product of Example 1 and at a concentration of 0.005 parts per million, p.p.m.: there were introduced larvae of third and fourth age.
as §1

Musca domestica [2] = conditions: 0.5 γ/insect; literature compounds (Agricultural and Food Chemistry 11, 1963, p.237); cited from earlier work
Tetran Urt. eggs = test: Activity on Tetran Urt. eggs (Table II); assay type: in vivo
Text: as §1

Pieris Brassicae = test: Activity on Pieris Brassicae (Table II); assay type: in vivo; conditions: read-out: % mort. Pieris Brassicae
Text: as §1

Macrosiphum Euphorbiae = test: Activity test on Macrosiphum euphorbiae (aphides) on potato plants; assay type: in vivo
Text: Small potato plants, grown in pots, were infested with adult aphide females and, after a few hours, subjected to besprinkling with an aqueous dispersion of the product of Example 1, at a concentration of 0.1%. The percentual death-rate turned out to be 100% (on small untreated plants = 0).
as §1

albino mouse = conditions: oral, comparison value; cited from earlier work
[3] = Acute oral toxicity (DL 50) in the albino mouse; conditions: in vivo
Musca domestica [4] = test: Activity test on Musca domestica, topical application; assay type: in vivo
Method: Activity of "Musca domestica" by O-methyl-O-(2,4,5-trichlorophenyl)-phosphoroamidothioates with relationship to the weight of the alkyl group bound to the nitrogen atom (iso-C3 H7 = 1) in comparison with that of the compound of Example 1 of this invention (in a quantity of 0.5 γ/insect):
Adult 4-day flies were treated by topical application by means of a micro-syringe of 1 cubic millimeters (mm^3) of an acetone solution at 0.5 γ/ .mm^3 according to Example 1. […] (The death-rate of the flies treated with 1 .mm^3 of acetone under the same conditions was equal to 0).

CCOP(=S)(Oc1ccc(SC)c(C)c1)N(C)CC=C(Cl)Cl (stereo not drawn) [M 7470]
% mort. Spodopt. Littoralis (Spodopt. Littoralis): 25%
% mort. Tetran. Urt. adults (Tetran. Urt. adults; 0,01 % a.p.): 4%

COP(=S)(NCC=C(Cl)Cl)Oc1ccc([N+](=O)[O-])c(C)c1 (stereo not drawn) [M 7415]
mortality at 1 % ([1]; 1 % a.p.): 70%

CSc1ccc(OP(=S)(NCC=C(Cl)Cl)OC(C)C)cc1C (stereo not drawn) [Example M7468]
% mort. Spodopt. Littoralis (Spodopt. Littoralis): 0%
mortality at 0.02 µg/mL (Culex pipiens; 0,02 ppm a.p., read-out: % mort. Oulex Pipens): 30%
% mort. Tetran. Urt. adults (Tetran. Urt. adults; 0,1 % a.p.): 0%
mortality at 1 % ([1]; 1 % a.p.): 30%

COP(=S)(NC(C)C)Oc1cc(Cl)c(Cl)cc1Cl (stereo not drawn)
Percentual death-rate on Musca domestica (Musca domestica [2]): 100%

CCOP(=S)(NCC=C(Cl)Cl)Oc1ccc([N+](=O)[O-])c(C)c1 (stereo not drawn) [M 6986]
% mort. Spodopt. Littoralis (Spodopt. Littoralis): 5%
mortality at 0.2 µg/mL (Culex pipiens; 0,2 ppm a.p., read-out: % mort. Oulex Pipens): 100%
mortality at 2 µg/mL (Culex pipiens; read-out: % mort. Oulex Pipens): 100%
% mort. Tetran. Urt. adults (Tetran. Urt. adults; 1 % a.p.): 26%
% mort. Tetran Urt. eggs (Tetran Urt. eggs; 1 % a.p.): 12%
mortality at 1 % (Pieris Brassicae; 1 % a.p.): 100%
mortality at 1 % (Macrosiphum Euphorbiae; 1 % a.p., read-out: % mort. Macrosiphum Euphorbiae): 100%
mortality at 1 % ([1]; 1 % a.p.): 40%

COP(=S)(NCC=C(Cl)Cl)Oc1ccc(SC)c(C)c1 (stereo not drawn) [M 7466]
% mort. Spodopt. Littoralis (Spodopt. Littoralis): 0%

COP(=S)(NCC(C)C)Oc1cc(Cl)c(Cl)cc1Cl (stereo not drawn)
Percentual death-rate on Musca domestica (Musca domestica [2]): 92%

CCOP(=S)(OCC)Oc1ccc([N+](=O)[O-])cc1 [Parathion, O,O-diethyl-O-p-nitrophenyl-phosphorthioate]
D.L. 50 (albino mouse): 14 mg/kg

CCOP(=S)(NCC=C(Cl)Cl)Oc1ccc(SC)c(C)c1 (stereo not drawn) [M 7467]
% mort. Spodopt. Littoralis (Spodopt. Littoralis): 30%
mortality at 1 % ([1]; 1 % a.p.): 55%

COP(=S)(NC(C)(C)C)Oc1cc(Cl)c(Cl)cc1Cl (stereo not drawn)
Percentual death-rate on Musca domestica (Musca domestica [2]): 13%

CC(C)OP(=S)(NCC=C(Cl)Cl)Oc1cc(Cl)c(Cl)cc1Cl (stereo not drawn) [M 7147]
% mort. Tetran. Urt. adults (Tetran. Urt. adults; 1 % a.p.): 47%
mortality at 1 % (Pieris Brassicae): 20%
mortality at 1 % [1]: 75%

CCOP(=S)(NCC=C(Cl)Cl)Oc1cc(Cl)c(Cl)cc1Cl (stereo not drawn) [Example 1, O-ethyl-O-(2,4,5-trichlorophenyl)-N-(3,3-dichloro-allyl)amido-thiophosphate]
mortality at 0.005 ppm (Culex pipiens; larvae of third and fourth age, 0.005 p.p.m., after 24 hours, read-out: death-rate): 100%
LD50 [3]: > 100 mg/kg
mortality at 0.1 % (Macrosiphum Euphorbiae; read-out: percentual death-rate): 100%
Percentual death-rate on Musca domestica (Musca domestica [4]; 0.5 γ/insect, Table I): 100%
death-rate (Musca domestica [4]; adult 4-day flies, topical 1 mm^3 acetone solution at 0.5 γ/mm^3, after 24 hours): 100%
mortality at 0.1 % ([1]; 4-day old larvae on potato plants, aqueous 0.1% dispersion, after 48 hrs, read-out: percentual death-rate of the larvae): 100%

COP(=S)(NC(C)C)Oc1ccc(Cl)cc1Cl (stereo not drawn)
Percentual death-rate on Musca domestica (Musca domestica [2]): 100%

CSc1ccc(OP(=S)(OC(C)C)N(C)CC=C(Cl)Cl)cc1C (stereo not drawn) [M 7471]
% mort. Spodopt. Littoralis (Spodopt. Littoralis): 0%
% mort. Tetran. Urt. adults (Tetran. Urt. adults; 1 % a.p.): 57%
mortality at 0.1 % (Pieris Brassicae; 0,1 % a.p.): 0%
mortality at 1 % ([1]; 1 % a.p.): 65%

COP(=S)(Oc1ccc(SC)c(C)c1)N(C)CC=C(Cl)Cl (stereo not drawn) [Example M7469]
% mort. Spodopt. Littoralis (Spodopt. Littoralis): 15%
% mort. Tetran Urt. eggs (Tetran Urt. eggs; 0,1 % a.p.): 24%
% mort. Tetran Urt. eggs (Tetran Urt. eggs; 1 % a.p.): 100%
mortality at 1 % [1]: 20%

COP(=S)(NCC=C(Cl)Cl)Oc1cc(Cl)c(Cl)cc1Cl (stereo not drawn) [M 7160]
% mort. Spodopt. Littoralis (Spodopt. Littoralis): 55%
mortality at 1 % ([1]; 1 % a.p.): 40%
